Reference: ChEMBL document CHEMBL2073997, “Effect of multidrug resistance-reversing agents on transporting activity of human canalicular multispecific organic anion transporter” (Mol Pharmacol, 1999)

Assays:
[1] = molecular target: T1, ATP-binding cassette sub-family C member 2 (Homo sapiens, UniProt Q92887); assay: TP_TRANSPORTER: increase in Vincristine intracellular accumulation (Vincristine: 1 uM, MK571: 10 uM) in MRP2-expressing LLC PK1 cells; type: functional, cell-based; conditions: pig, llc-pk1, 10 µM
[2] = molecular target: T1, ATP-binding cassette sub-family C member 2; assay: TP_TRANSPORTER: inhibition of LTC4 uptake in membrane vesicles from MRP2-expressing LLC PK1 cells; type: functional, cell membranes, Membrane vesicle
[3] = molecular target: T1, ATP-binding cassette sub-family C member 2; assay: (§1) TP_TRANSPORTER: uptake in membrane vesicles from MRP2-expressing LLC PK1 cells; type: functional, cell membranes, Membrane vesicle; conditions: pig
[4] = molecular target: T1, ATP-binding cassette sub-family C member 2; assay: TP_TRANSPORTER: increase in Vincristine intracellular accumulation (Vincristine: 1 uM, PSC-833: 10 uM) in MRP2-expressing LLC PK1 cells; type: functional, cell-based; conditions: pig, llc-pk1, 10 µM
[5] = molecular target: T1, ATP-binding cassette sub-family C member 2; assay: TP_TRANSPORTER: intracellular accumulation in MRP2-expressing LLC PK1 cells; type: functional, cell-based; conditions: pig
[6] = molecular target: T1, ATP-binding cassette sub-family C member 2; assay: TP_TRANSPORTER: increase in Vincristine intracellular accumulation (Vincristine: 1 uM, PAK-104P: 10 uM) in MRP2-expressing LLC PK1 cells; type: functional, cell-based; conditions: pig, llc-pk1, 10 µM
[7] = substrate: CCCCC/C=C\C\C=C/C=C/C=C/[C@@H](SC[C@@H](NC(=O)CC[C@H](N)C(=O)O)C(=O)NCC(=O)O)[C@@H](O)CCCC(=O)O; assay: as §1; type: functional, cell membranes, Membrane vesicle

CN(C)C(=O)CCSC(SCCC(=O)O)c1cccc(/C=C/c2ccc3ccc(Cl)cc3n2)c1 (centres undefined) [MK-571]
Activity [1]: inhibitor [+] | Ki [2]: 13.1 µM

N[C@@H](CCC(=O)N[C@H](CSc1ccc([N+](=O)[O-])cc1[N+](=O)[O-])C(=O)NCC(=O)O)C(=O)O
Activity [3]: substrate [+]

C/C=C/C[C@@H](C)C(=O)[C@H]1C(=O)N[C@@H](C(C)C)C(=O)N(C)CC(=O)N(C)[C@@H](CC(C)C)C(=O)N[C@@H](C(C)C)C(=O)N(C)[C@@H](CC(C)C)C(=O)N[C@@H](C)C(=O)N[C@H](C)C(=O)N(C)[C@@H](CC(C)C)C(=O)N(C)[C@@H](CC(C)C)C(=O)N(C)[C@@H](C(C)C)C(=O)N1C [VALSPODAR]
Ki [2]: 28.9 µM | Activity [4]: inhibitor [+]

CC[C@]1(O)C[C@H]2CN(CCc3c([nH]c4ccccc34)[C@@](C(=O)OC)(c3cc4c(cc3OC)N(C=O)[C@H]3[C@@](O)(C(=O)OC)[C@H](OC(C)=O)[C@]5(CC)C=CCN6CC[C@]43[C@@H]65)C2)C1 [VINCRISTINE]
Activity [5]: substrate [+]

Cc1nc(C)c(P2(=O)O[C@H](C)C[C@@H](C)O2)c(-c2cccc([N+](=O)[O-])c2)c1C(=O)OCCN1CCN(C(c2ccccc2)c2ccccc2)CC1 (some centres undefined)
Activity [6]: inhibitor [+] | Ki [2]: 3.7 µM

B1: ATP-binding cassette sub-family C member 2 (Homo sapiens) (protein)
chain: MLEKFCNSTFWNSSFLDSPEADLPLCFEQTVLVWIPLGYLWLLAPWQLLHVYKSRTKRSSTTKLYLAKQVFVGFLLILAAIELALVLTEDSGQATVPAVRYTNPSLYLGTWLLVLLIQYSRQWCVQKNSWFLSLFWILSILCGTFQFQTLIRTLLQGDNSNLAYSCLFFISYGFQILILIFSAFSENNESSNNPSSIASFLSSITYSWYDSIILKGYKRPLTLEDVWEVDEEMKTKTLVSKFETHMKRELQKARRALQRRQEKSSQQNSGARLPGLNKNQSQSQDALVLEDVEKKKKKSGTKKDVPKSWLMKALFKTFYMVLLKSFLLKLVNDIFTFVSPQLLKLLISFASDRDTYLWIGYLCAILLFTAALIQSFCLQCYFQLCFKLGVKVRTAIMASVYKKALTLSNLARKEYTVGETVNLMSVDAQKLMDVTNFMHMLWSSVLQIVLSIFFLWRELGPSVLAGVGVMVLVIPINAILSTKSKTIQVKNMKNKDKRLKIMNEILSGIKILKYFAWEPSFRDQVQNLRKKELKNLLAFSQLQCVVIFVFQLTPVLVSVVTFSVYVLVDSNNILDAQKAFTSITLFNILRFPLSMLPMMISSMLQASVSTERLEKYLGGDDLDTSAIRHDCNFDKAMQFSEASFTWEHDSEATVRDVNLDIMAGQLVAVIGPVGSGKSSLISAMLGEMENVHGHITIKGTTAYVPQQSWIQNGTIKDNILFGTEFNEKRYQQVLEACALLPDLEMLPGGDLAEIGEKGINLSGGQKQRISLARATYQNLDIYLLDDPLSAVDAHVGKHIFNKVLGPNGLLKGKTRLLVTHSMHFLPQVDEIVVLGNGTIVEKGSYSALLAKKGEFAKNLKTFLRHTGPEEEATVHDGSEEEDDDYGLISSVEEIPEDAASITMRRENSFRRTLSRSSRSNGRHLKSLRNSLKTRNVNSLKEDEELVKGQKLIKKEFIETGKVKFSIYLEYLQAIGLFSIFFIILAFVMNSVAFIGSNLWLSAWTSDSKIFNSTDYPASQRDMRVGVYGALGLAQGIFVFIAHFWSAFGFVHASNILHKQLLNNILRAPMRFFDTTPTGRIVNRFAGDISTVDDTLPQSLRSWITCFLGIISTLVMICMATPVFTIIVIPLGIIYVSVQMFYVSTSRQLRRLDSVTRSPIYSHFSETVSGLPVIRAFEHQQRFLKHNEVRIDTNQKCVFSWITSNRWLAIRLELVGNLTVFFSALMMVIYRDTLSGDTVGFVLSNALNITQTLNWLVRMTSEIETNIVAVERITEYTKVENEAPWVTDKRPPPDWPSKGKIQFNNYQVRYRPELDLVLRGITCDIGSMEKIGVVGRTGAGKSSLTNCLFRILEAAGGQIIIDGVDIASIGLHDLREKLTIIPQDPILFSGSLRMNLDPFNNYSDEEIWKALELAHLKSFVASLQLGLSHEVTEAGGNLSIGQRQLLCLGRALLRKSKILVLDEATAAVDLETDNLIQTTIQNEFAHCTVITIAHRLHTIMDSDKVMVLDNGKIIECGSPEELLQIPGPFYFMAKEAGIENVNSTKF
Km [7]: 0.26 µM
